According to ChEMBL document CHEMBL5579861, “Cytotoxic Peptaibols from Trichoderma guizhouense, a Fungus Isolated from an Urban Soil Sample” (J Nat Prod, 2024):
Non-standard residues stand in square brackets, D forms with d. Residues, ends and D or L forms follow the SMILES beside them. *: point of attachment. Leu(ol) = CC(C)C[C@H](N)CO; dIva = CC[C@@](C)(N)C(=O)O; Valol = CC(C)[C@@H](CO)N*; Aib = CC(C)(N)C(=O)O

Assays:
[1] = tested on: DU-145; assay: Cytotoxicity against human DU-145 cells assessed as reduction in cell viability after 24 hrs by MTT assay; assay type: functional, cell-based; settings: DU-145, 24 h
[2] = tested on: SK-OV-3; assay: Cytotoxicity against human SK-OV-3 cells assessed as reduction in cell viability after 24 hrs by MTT assay; assay type: functional, cell-based; settings: SK-OV-3, 24 h
[3] = tested on: HCT-116; assay: Cytotoxicity against human HCT-116 cells assessed as reduction in cell viability after 24 hrs by MTT assay; assay type: functional, cell-based; settings: HCT-116, 24 h
[4] = tested on: SK-HEP1; assay: Cytotoxicity against human SK-HEP1 cells assessed as reduction in cell viability after 24 hrs by MTT assay; assay type: functional, cell-based; settings: SK-HEP1, 24 h
[5] = tested on: MDA-MB-231; assay: Cytotoxicity against human MDA-MB-231 cells assessed as reduction in cell viability after 24 hrs by MTT assay; assay type: functional, cell-based; settings: MDA-MB-231, 24 h
[6] = Selectivity index, ratio of EC50 for cytotoxicity against human HepG2 cells to EC50 for antimalarial activity against Plasmodium falciparum Dd2; assay type: toxicity, cell-based; settings: read-out: Ratio EC50
[7] = Cytotoxicity against human HepG2 cells assessed as reduction in cell viability after 48 hrs by MTS assay; assay type: toxicity, cell-based
[8] = tested on: Plasmodium falciparum; assay: Antimalarial activity against Plasmodium falciparum Dd2 assessed as reduction in parasite growth incubated for 72 hrs by SYBR Green I staining based assay; assay type: functional, organism-based; settings: Dd2, 72 h

CC[C@@](C)(NC(=O)[C@H](C)NC(=O)[C@H](C)NC(=O)C(C)(C)NC(C)=O)C(=O)N[C@](C)(CC)C(=O)N[C@@H](CCC(N)=O)C(=O)N[C@](C)(CC)C(=O)N[C@@H](CC(C)C)C(=O)NC(C)(C)C(=O)N[C@@H](C)C(=O)NC(C)(C)C(=O)NC(C)(C)C(=O)N1CCC[C@H]1C(=O)N[C@@H](CC(C)C)C(=O)NC(C)(C)C(=O)NC(C)(C)C(=O)N[C@@H](CCC(N)=O)C(=O)N[C@H](CO)C(C)C
IC50 [1]: 4.5 µM
IC50 [2]: 2.9 µM
IC50 [3]: 0.83 µM
IC50 [4]: 0.97 µM
IC50 [5]: 0.85 µM

CC[C@H](C)[C@H](NC(=O)[C@@](C)(CC)NC(=O)[C@@H]1CCCN1C(=O)C(C)(C)NC(=O)[C@@H](NC(=O)[C@H](C)NC(=O)[C@@H]1CCCN1C(=O)C(C)(C)NC(=O)[C@H](CC(C)C)NC(=O)[C@H](CCC(N)=O)NC(=O)C(C)(C)NC(C)=O)C(C)C)C(=O)NC(C)(C)C(=O)N1CCC[C@H]1C(=O)N[C@H](CO)C(C)C
IC50 [1]: 9.3 µM
IC50 [2]: 3.8 µM
IC50 [3]: 3.5 µM
IC50 [4]: 4.6 µM
IC50 [5]: 3.9 µM

CC[C@H](C)[C@H](NC(=O)C(C)(C)NC(=O)[C@@H]1CCCN1C(=O)C(C)(C)NC(=O)[C@@H](NC(=O)[C@H](C)NC(=O)[C@@H]1CCCN1C(=O)C(C)(C)NC(=O)[C@H](CC(C)C)NC(=O)[C@H](CCC(N)=O)NC(=O)[C@@](C)(CC)NC(C)=O)C(C)C)C(=O)NC(C)(C)C(=O)N1CCC[C@H]1C(=O)N[C@H](CO)CC(C)C
IC50 [1]: > 50 µM
IC50 [2]: > 50 µM
IC50 [3]: 16 µM
IC50 [4]: 4.8 µM
IC50 [5]: 20 µM

CC[C@H](C)[C@H](NC(=O)[C@@](C)(CC)NC(=O)[C@@H]1CCCN1C(=O)C(C)(C)NC(=O)[C@@H](NC(=O)[C@H](C)NC(=O)[C@@H]1CCCN1C(=O)C(C)(C)NC(=O)[C@H](CC(C)C)NC(=O)[C@H](CCC(N)=O)NC(=O)[C@@](C)(CC)NC(C)=O)C(C)C)C(=O)NC(C)(C)C(=O)N1CCC[C@H]1C(=O)N[C@H](CO)CC(C)C
IC50 [1]: 20 µM
IC50 [2]: 9.2 µM
IC50 [3]: 4.8 µM
IC50 [4]: 8 µM
IC50 [5]: 5.5 µM

CC(=O)O[C@@]12CO[C@@H]1C[C@H](O)[C@@]1(C)C(=O)[C@H](O)C3=C(C)[C@@H](OC(=O)[C@H](O)[C@@H](NC(=O)OC(C)(C)C)c4ccccc4)C[C@@](O)([C@@H](OC(=O)c4ccccc4)[C@H]21)C3(C)C [DOCETAXEL ANHYDROUS]
IC50 [1]: 0.04 µM
IC50 [2]: 0.05 µM
IC50 [4]: 0.03 µM
IC50 [5]: 0.17 µM

CC[C@@](C)(NC(C)=O)C(=O)N[C@@H](CCC(N)=O)C(=O)N[C@@H](CC(C)C)C(=O)NC(C)(C)C(=O)N1CCC[C@H]1C(=O)N[C@@H](C)C(=O)N[C@H](C(=O)NC(C)(C)C(=O)N1CCC[C@H]1C(=O)N[C@](C)(CC)C(=O)N[C@@H](CC(C)C)C(=O)NC(C)(C)C(=O)N1CCC[C@H]1C(=O)N[C@H](CO)CC(C)C)C(C)C
IC50 [1]: 9.2 µM
IC50 [2]: 4.3 µM
IC50 [3]: 2.7 µM
IC50 [4]: 4.3 µM
IC50 [5]: 5.9 µM

CC[C@H](C)[C@H](NC(=O)C(C)(C)NC(=O)[C@@H]1CCCN1C(=O)C(C)(C)NC(=O)[C@@H](NC(=O)[C@H](C)NC(=O)[C@@H]1CCCN1C(=O)C(C)(C)NC(=O)[C@H](CC(C)C)NC(=O)[C@H](CCC(N)=O)NC(=O)C(C)(C)NC(C)=O)C(C)C)C(=O)NC(C)(C)C(=O)N1CCC[C@H]1C(=O)N[C@H](CO)C(C)C (Ac-[Aib]QL[Aib]PAV[Aib]P[Aib]I[Aib]P-Valol)
IC50 [1]: 16 µM
IC50 [2]: 7.8 µM
IC50 [3]: 9.5 µM
IC50 [4]: 11 µM
IC50 [5]: 4.6 µM

CC[C@@](C)(NC(=O)[C@H](C)NC(=O)[C@H](CO)NC(=O)C(C)(C)NC(C)=O)C(=O)N[C@](C)(CC)C(=O)N[C@@H](CCC(N)=O)C(=O)N[C@](C)(CC)C(=O)N[C@@H](CC(C)C)C(=O)NC(C)(C)C(=O)N[C@@H](C)C(=O)NC(C)(C)C(=O)NC(C)(C)C(=O)N1CCC[C@H]1C(=O)N[C@@H](CC(C)C)C(=O)NC(C)(C)C(=O)NC(C)(C)C(=O)N[C@@H](CCC(N)=O)C(=O)N[C@H](COC(C)=O)C(C)C
IC50 [1]: 1.5 µM
IC50 [2]: 2.9 µM
IC50 [3]: 0.88 µM
IC50 [4]: 2.1 µM
IC50 [5]: 0.84 µM

CC[C@H](C)[C@H](NC(=O)[C@@](C)(CC)NC(=O)[C@@H]1CCCN1C(=O)C(C)(C)NC(=O)[C@@H](NC(=O)[C@H](C)NC(=O)[C@@H]1CCCN1C(=O)C(C)(C)NC(=O)[C@H](CC(C)C)NC(=O)[C@H](CCC(N)=O)NC(=O)C(C)(C)NC(C)=O)C(C)C)C(=O)NC(C)(C)C(=O)N1CCC[C@H]1C(=O)N[C@H](CO)CC(C)C
IC50 [1]: 10 µM
IC50 [2]: 3.8 µM
IC50 [3]: 3 µM
IC50 [4]: 3.8 µM
IC50 [5]: 4.3 µM

CC[C@@](C)(NC(C)=O)C(=O)N[C@@H](CCC(N)=O)C(=O)N[C@@H](CC(C)C)C(=O)NC(C)(C)C(=O)N1CCC[C@H]1C(=O)N[C@@H](C)C(=O)N[C@H](C(=O)NC(C)(C)C(=O)N1CCC[C@H]1C(=O)N[C@@H](CC(C)C)C(=O)N[C@@H](CC(C)C)C(=O)NC(C)(C)C(=O)N1CCC[C@H]1C(=O)N[C@H](CO)CC(C)C)C(C)C
IC50 [1]: 25 µM
IC50 [2]: 15 µM
IC50 [3]: 14 µM
IC50 [4]: 19 µM
IC50 [5]: 14 µM

CC[C@H](C)[C@H](NC(=O)[C@H](CC(C)C)NC(=O)[C@H](CCC(N)=O)NC(=O)[C@@](C)(CC)NC(C)=O)C(=O)NC(C)(C)C(=O)N1CCC[C@H]1C(=O)N[C@](C)(CC)C(=O)N[C@@H](CC(C)C)C(=O)NC(C)(C)C(=O)N1CCC[C@H]1C(=O)N[C@H](CO)CC(C)C (Ac-[dIva]QLI[Aib]P[dIva]L[Aib]P[Leu(ol)])
selectivity ratio [6]: > 250
EC50 at 48 h [7]: > 25 µM
EC50 [8]: 0.1 µM

CC[C@@](C)(NC(=O)[C@H](C)NC(=O)[C@H](CO)NC(=O)C(C)(C)NC(C)=O)C(=O)N[C@](C)(CC)C(=O)N[C@@H](CCC(N)=O)C(=O)N[C@](C)(CC)C(=O)N[C@@H](CC(C)C)C(=O)NC(C)(C)C(=O)N[C@@H](C)C(=O)NC(C)(C)C(=O)NC(C)(C)C(=O)N1CCC[C@H]1C(=O)N[C@@H](CC(C)C)C(=O)NC(C)(C)C(=O)NC(C)(C)C(=O)N[C@@H](CCC(N)=O)C(=O)N[C@H](CO)C(C)C
IC50 [1]: 1.4 µM
IC50 [2]: 0.91 µM
IC50 [3]: 0.71 µM
IC50 [4]: 0.91 µM
IC50 [5]: 0.68 µM

CC(=O)NC(C)(C)C(=O)N[C@@H](CCC(N)=O)C(=O)N[C@@H](CC(C)C)C(=O)NC(C)(C)C(=O)N1CCC[C@H]1C(=O)N[C@@H](C)C(=O)N[C@H](C(=O)NC(C)(C)C(=O)N1CCC[C@H]1C(=O)NC(C)(C)C(=O)N[C@H](C(=O)NC(C)(C)C(=O)N1CCC[C@H]1C(=O)N[C@H](CO)CC(C)C)C(C)C)C(C)C (Ac-[Aib]QL[Aib]PAV[Aib]P[Aib]V[Aib]P[Leu(ol)])
IC50 [1]: 11 µM
IC50 [2]: 5.3 µM
IC50 [3]: 7.1 µM
IC50 [4]: 8.9 µM
IC50 [5]: 6.4 µM

CC[C@H](C)[C@H](NC(=O)C(C)(C)NC(=O)[C@@H]1CCCN1C(=O)C(C)(C)NC(=O)[C@@H](NC(=O)[C@H](C)NC(=O)[C@@H]1CCCN1C(=O)C(C)(C)NC(=O)[C@H](CC(C)C)NC(=O)[C@H](CCC(N)=O)NC(=O)C(C)(C)NC(C)=O)C(C)C)C(=O)NC(C)(C)C(=O)N1CCC[C@H]1C(=O)N[C@H](CO)CC(C)C (Ac-[Aib]QL[Aib]PAV[Aib]P[Aib]I[Aib]P[Leu(ol)])
IC50 [1]: 36 µM
IC50 [2]: 24 µM
IC50 [3]: 16 µM
IC50 [4]: 31 µM
IC50 [5]: 37 µM
